According to patent publication US20250034186A1, “ANTIVIRAL COMPOUNDS” (priority 2020, published 2025):

What was measured:
HRV14 = HRV14 HeLa EC50; type: cell-based, human rhinovirus; conditions: Human rhinovirus sp., HRV14; H1-HeLa cells, 96 h, 37° C.
Procedure: (§1) H1-HeLa cells, cultured in complete RPMI 1640 medium containing 10% heat-inactivated FBS and 1% Penicillin/Streptomycin, were seeded in 96 well plates at 5000 cells/well one day prior to compound dosing and infection. The antiviral activity of each compound was measured in triplicate. Compounds were added directly to the cell cultures in serial 3-fold dilutions using the HP300 digital dispenser (Hewlett Packard, Palo Alto, CA) immediately prior to infection. The plates were transferred to BSL-2 containment and 100 μL of 1/4000 dilution of HRV14 virus stock was added to each well containing cells and serially diluted compounds. Each plate included 6 wells of infected untreated cells and 6 wells of cells containing 5 μM Rupintrivir that served as 0% and 100% virus inhibition control, respectively. Following the infection, test plates were incubated for 96 h in a tissue culture incubator set to 37° C./5% CO2. Following incubation, the H1-HeLa cells were removed from incubation and allowed to equilibrate to 25° C. Cell viability was determined by removing 100 μL of culture medium and adding 100 μL of Cell-Titer Glo viability reagent. The mixtures were incubated on a shaker for 10 minutes at 25° C., and the luminescence signal was quantified on an Envision luminescence plate reader.

HRV16 = HRV16 HeLa EC50; type: cell-based, human rhinovirus; conditions: Human rhinovirus sp., HRV16; H1-HeLa cells, 96 h, 33° C.
Procedure: H1-HeLa cells, cultured in complete DMEM medium containing 10% heat-inactivated FBS and 1% Penicillin/Streptomycin, were seeded in 96 well plates at 3000 cells/well one day prior to compound dosing and infection. The antiviral activity of each compound was measured in triplicate. Compounds were added directly to the cell cultures in serial 3-fold dilutions using the HP300 digital dispenser (Hewlett Packard, Palo Alto, CA) immediately prior to infection. The plates were transferred to BSL-2 containment and the appropriate dilution of virus stock, previously determined by titration and prepared in cell culture media, was added to test plates containing cells and serially diluted compounds. Each plate included 6 wells of infected untreated cells and 6 wells of uninfected cells that served as 0% and 100% virus inhibition control, respectively. Following the infection, test plates were incubated for 96 h in a tissue culture incubator set to 33° C./5% CO2. Following incubation, the H1-HeLa cells were removed from incubation and allowed to equilibrate to 25° C. Cell viability was determined by removing 100 μL of culture medium and adding 100 μL of Cell-Titer Glo viability reagent. The mixtures were incubated on a shaker for 10 minutes at 25° C., and the luminescence signal was quantified on an Envision luminescence plate reader.

RSV A2 = experiment: RSV NHBE EC50, RSV A2 antiviral assay; type: cell-based; conditions: human respiratory syncytial virus, 96 h; RSV A2 in NHBE cells, 4 days
Procedure: Normal human bronchial epithelial (NHBE) cells were purchased from Lonza (Walkersville, MD, Cat #CC-2540) and cultured in Bronchial Epithelial Growth Media (BEGM) (Lonza, Walkersville, MD, Cat #CC-3170). The cells were passaged 1-2 times per week to maintain <80% confluency. The NHBE cells were discarded after 6 passages in culture.
To conduct the RSV A2 antiviral assay, NHBE cells were plated in 96-well plates at a density of 7,500 cells per well in BEGM and allowed to attach overnight at 37° C. Following attachment, 100 μL of cell culture media was removed and 3-fold serially diluted compound was added using a Hewlett-Packard D300 Digital Dispenser. The final concentration of DMSO was normalized to 0.05%. Following compound addition, the NHBE cells were infected by the addition of 100 μL of RSV A2 at a titer of 1×10^4.5 tissue culture infectious doses/mL in BEGM and then incubated at 37° C. for 4 days. The NHBE cells were then allowed to equilibrate to 25° C. and cell viability was determined by removing 100 μL of culture medium and adding 100 μL of Cell-Titer Glo viability reagent. The mixtures were incubated for 10 minutes at 25° C., and the luminescence signal was quantified on an Envision luminescence plate reader.

RSV strain A2 = experiment: RSV HEp-2 EC50, infectious cytopathic cell protection assay; type: cell-based; conditions: human respiratory syncytial virus, 96 h; RSV A2 in HEp-2 cells, 4 days, Cell TiterGlo
Procedure: Antiviral activity against RSV is determined using an infectious cytopathic cell protection assay in HEp-2 cells. In this assay, compounds inhibiting viral infection and/or replication produce a cytoprotective effect against the virus-induced cell killing that can be quantified using a cell viability reagent. The techniques used here are novel adaptations of methods described in published literature (Chapman et al., Antimicrob Agents Chemother. 2007, 51(9):3346-53.).
HEp-2 cells are obtained from ATCC (Manassas, VI) and maintained in MEM media supplemented with 10% fetal bovine serum and penicillin/streptomycin. Cells are passaged twice a week and kept at subconfluent stage. Commercial stock of RSV strain A2 (Advanced Biotechnologies, Columbia, MD) is titered before compound testing to determine the appropriate dilution of the virus stock that generates desirable cytopathic effect in HEp-2 cells.
For antiviral tests, HEp-2 cells are grown in large cell culture flasks to near confluency but not fully so. The compounds to be tested are prediluted in DMSO in 384-well compound dilution plates, either in an 8 or 40 sample per plate standardized dose response format. 3-fold serial dilution increments of each test compound are prepared in the plates and test samples are transferred via acoustic transfer apparatus (Echo, Labcyte) at 100 nL per well into cell culture assay 384-well plates. Each compound dilution is transferred in single or quadruplicate samples into dry assay plates, which are stored until assay is ready to go. The positive and negative controls are laid out in opposite on ends of the plate in vertical blocks (1 column).
Subsequently, an infectious mixture is prepared using an appropriate dilution of virus stock previously determined by titration with cells at a density of 50,000/mL and 20 μL/well is added to test plates w/compounds via automation (uFlow, Biotek). Each plate includes negative and positive controls (16 replicates each) to create 0% and 100% virus inhibition standards, respectively. Following the infection with RSV, testing plates are incubated for 4 days in a 37° C. cell culture incubator. After the incubation, a cell viability reagent, Cell TiterGlo (Promega, Madison, WI) is added to the assay plates, which are incubated briefly, and a luminescent readout is measured (Envision, Perkin Elmer) in all the assay plates. The RSV-induced cytopathic effect, percentage inhibition, is determined from the levels of remaining cell viability. […] Various potent anti-RSV tool compounds are used as positive controls for antiviral activity.

HRV1a = experiment: HRV1A HeLa EC50; type: cell-based, human rhinovirus; conditions: Human rhinovirus sp., HRV1A, HeLa, 96 h, read-out: HRV1A HeLa EC50
Procedure: as §1, with “HRV1a” for “HRV14”

Row | Compound | EC50 (HRV14) [µM] | EC50 (HRV16) [µM] | EC50 (RSV A2) [µM] | EC50 (RSV strain A2) [µM] | EC50 (HRV1a) [µM]
1 | CC(C)OC(=O)[C@H](C)NP(=O)(OC[C@@]1(C#N)O[C@@H](c2ccc3c(N)ncnn23)[C@H](O)[C@@H]1O)Oc1ccccc1 (stereo partly drawn) [Compound 3, isopropyl ((((2R,3S,4R,5S)-5-(4-aminopyrrolo[2,1-f][1,2,4]triazin-7-yl)-2-cyano-3,4-dihydroxytetrahydrofuran-2-yl)methoxy)(phenoxy)phosphoryl)-L-alaninate] | 1.81 | 1.42 | 1.15 | 0.463 | 0.735
2 | CCC(CC)OC(=O)[C@H](C)NP(=O)(OC[C@@]1(C#N)O[C@@H](c2ccc3c(N)ncnn23)[C@H](O)[C@@H]1O)Oc1ccccc1 (stereo partly drawn) [Compound 5, (2S)-pentan-3-yl 2-(((((2R,3S,4R,5S)-5-(4-aminopyrrolo[2,1-f][1,2,4]triazin-7-yl)-2-cyano-3,4-dihydroxytetrahydrofuran-2-yl)methoxy)(phenoxy)phosphoryl)amino)propanoate] | 3.43 | 3.13 | 1.24 | 1.74 | 1.62
3 | C[C@H](N[P@@](=O)(OC[C@@]1(C#N)O[C@@H](c2ccc3c(N)ncnn23)[C@H](O)[C@@H]1O)Oc1ccccc1)C(=O)OC1CCCCC1 (single isomer, unassigned) [Formula Ib] |  | 0.654 | 0.63 | 2.73 | 
4 | CC(C)OC(=O)[C@H](C)N[P@](=O)(OC[C@@]1(C#N)O[C@@H](c2ccc3c(N)ncnn23)[C@H](O)[C@@H]1O)Oc1ccccc1 [Compound 4, (S)-isopropyl 2-(((S)-(((2R,3S,4R,5S)-5-(4-aminopyrrolo[2,1-f][1,2,4]triazin-7-yl)-2-cyano-3,4-dihydroxytetrahydrofuran-2-yl)methoxy)(phenoxy)phosphoryl)amino)propanoate] |  | 0.965 | 0.879 | 0.342 | 
5 | C[C@H](NP(=O)(OC[C@@]1(C#N)O[C@@H](c2ccc3c(N)ncnn23)[C@H](O)[C@@H]1O)Oc1ccccc1)C(=O)OC1CCCCC1 (stereo partly drawn) [Formula Ia, (2S)-cyclohexyl 2-(((((2R,3S,4R,5S)-5-(4-aminopyrrolo[2,1-f][1,2,4]triazin-7-yl)-2-cyano-3,4-dihydroxytetrahydrofuran-2-yl)methoxy)(phenoxy)phosphoryl)amino)propanoate] |  | 0.51 | 0.076 | 0.096 | 
